From patent US20220152031A1, “PYRIDAZINONES AND METHODS OF USE THEREOF” (Goldfinch Bio, Inc., priority 2019, published 2022) come the findings set out here.

Structures are written as SMILES.

In general, IC50 refers to the concentration that inhibits the measured activity by half.

One assay deals with T1, TRPC5 (Homo sapiens, UniProt Q9UL62).
T1 construct: expressed in transfected cells
T1 sequence (Q9UL62 1-973): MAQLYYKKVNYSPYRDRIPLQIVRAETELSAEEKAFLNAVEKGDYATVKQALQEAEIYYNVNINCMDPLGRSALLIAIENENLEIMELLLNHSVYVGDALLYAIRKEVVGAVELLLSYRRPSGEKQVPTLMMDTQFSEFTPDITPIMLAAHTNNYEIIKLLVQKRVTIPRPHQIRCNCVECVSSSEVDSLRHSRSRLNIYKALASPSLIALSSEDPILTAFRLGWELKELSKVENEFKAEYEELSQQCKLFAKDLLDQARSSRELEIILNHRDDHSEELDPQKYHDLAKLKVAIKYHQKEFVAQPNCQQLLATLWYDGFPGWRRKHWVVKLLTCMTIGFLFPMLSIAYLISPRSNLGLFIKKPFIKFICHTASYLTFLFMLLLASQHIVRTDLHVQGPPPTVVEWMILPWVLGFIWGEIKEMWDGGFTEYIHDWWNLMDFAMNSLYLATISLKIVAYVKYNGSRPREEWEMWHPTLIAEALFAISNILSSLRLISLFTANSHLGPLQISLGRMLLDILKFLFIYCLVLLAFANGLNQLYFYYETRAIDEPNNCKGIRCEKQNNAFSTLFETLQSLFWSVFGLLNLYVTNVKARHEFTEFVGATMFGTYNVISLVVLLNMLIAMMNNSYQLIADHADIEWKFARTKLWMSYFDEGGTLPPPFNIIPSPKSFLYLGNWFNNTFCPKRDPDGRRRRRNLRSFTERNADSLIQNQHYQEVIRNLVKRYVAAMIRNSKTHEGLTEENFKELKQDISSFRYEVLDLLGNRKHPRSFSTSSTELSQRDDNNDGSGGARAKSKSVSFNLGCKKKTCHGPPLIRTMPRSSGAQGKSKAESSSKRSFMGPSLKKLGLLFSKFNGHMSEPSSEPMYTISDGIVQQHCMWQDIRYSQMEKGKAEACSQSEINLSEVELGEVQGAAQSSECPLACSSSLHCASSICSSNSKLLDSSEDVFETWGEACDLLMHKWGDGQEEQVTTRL
Put plainly: TRPC5 activity assay (FLIPR calcium fluorescence, HEK-TREx hTRPC5 cells). Type of assay: cell-based. Particulars: Table 6, HEK-TREx hTRPC5; read-out: hTRPC5-FLIPR IC50. The method, then: ICLN-1633 cells (HEK-TREx hTRPC5) expressing TRPC5 were generated as follows. Commercially available HekTrex-293 cells were seeded at 0.7×10^6 cells/well in a 1×6-well plate 24 hrs prior to transfection using 2 mL cell growth media containing no antibiotics (lx DMEM/high glucose (Hyclone #SH30022.02); 10% fetal bovine serum (Sigma) 2 mM sodium pyruvate, 10 mM HEPES). […] On day 2, 2 μg of plasmid DNA plus 6 μl of Xtreme-GENE HP reagent in Optimem (200 μl total volume) was prepared and incubated for 15 min at room temperature. This plasmid solution was then gently overlayed dropwise onto each well and the plate was gently swirled to mix complex with the media for approximately 30 seconds. Transfected cells were incubated at 37° C. in a 10% CO2 incubator for 24 hrs. The transfected cells were harvested and transferred into 2×150 mm dishes containing cell growth media with no antibiotics at 37° C.
The next day selection was initiated to generate a stable pool by adding cell growth media containing 150 μg/mL Hygromycin and 5 μg/mL Blasticidin and cells were allowed to grow. Media with the selection agent was changed every 1-2 days as needed to remove dead cells. After 7 days, the hygromycin concentration was reduced to 75 μg/mL and cells growth was allowed to continue.
Single clones were selected as follows. The stable pool was diluted to 10 cells/mL and seeded (100 μl/well) into 24×96 well plates (˜1 cell/well) and allowed to grow for 7 days in cell growth media. Fresh media (100 μl) was added and the cells allowed to grow for another 1-2 weeks and then stored frozen or used immediately.
10-point dose response curves were generated using the Echo-550 acoustic dispenser. Compound source plates were made by serially diluting compound stocks to create 10 mM, 1 mM, and 0.1 mM solutions in DMSO into Echo certified LDV plates. The Echo then serially spotted 100% DMSO stock solutions into source dose response plates to generate a 4-fold dilution scheme. 100% DMSO was added to the spotted dose response plates to bring the final volume to 5 μl. 300 nl of the dose response stock plate was then spotted into pre-incubation and stimulation assay plates. 50 μl of pre-incubation buffer and 100 μl of stimulation buffer was then added to the plates resulting in a final assay test concentration range of 30 μM to 0.0001 μM with a final DMSO concentration of 0.3%.
Human ICLN-1633 cells expressing were plated onto 384 well, black PDL-coated microplates and maintained in TRPC5 growth media the day prior to use for experiments. TRPC5 expression was induced by the application of 1 μg/mL tetracycline at the time of plating. […] Cells are incubated at room temperature, protected from light, for 60-90 minutes. After the incubation period, the dye is removed and replaced with 10 μl of EBSS. Cell, pre-incubation and stimulation plates are loaded onto the FLIPR-II and the assay is initiated. The FLIPR measures a 10 second baseline and then adds 10 μl of 2× compounds (or controls). Changes in fluorescence are monitored for an additional 5 minutes. After the 5 minute pre-incubation, 20 μl of 2× Riluzole (with 1× compound or controls) is added to the cell plate. The final Riluzole stimulation concentration in the assay is 30 μM. After the Riluzole addition, changes in fluorescence are monitored for an additional 5 minutes.
Compound modulation of TRPC5 calcium response was determined as follows. After the Englerin A, fluorescence was monitored for a 5-minute period. The maximum relative fluorescence response (minus the control response of 1 μM of an internal control compound known to maximally block TRPC5 calcium response, the “REF INHIB” in the formula below) was captured and exported from the FLIPR.
Compound effect is calculated as % inhibition using the following formula: […]
wherein “RFU” is the relative fluorescent units.
Consider `CC(c1ccc(F)cc1C(F)(F)F)N1CCN(c2cn[nH]c(=O)c2Cl)CC1=O` (single isomer, unassigned) [MF], for which the IC50 fell in the range of 0.01 to 1000 nM.

Take `CCc1ncccc1N(CC)C1CCN(c2cn[nH]c(=O)c2Cl)CC1` [LW, 4-chloro-5-[4-[ethyl(2-ethylpyridin-3-yl)amino]piperidin-1-yl]-2,3-dihydropyridazin-3-one]: the IC50 lay in the range of 0.01 to 1000 nM.

`CCc1ncccc1[C@H](C)N1CCN(c2cn[nH]c(=O)c2Cl)CC1` [LY, 4-chloro-5-[4-[(1S)-1-(2-ethylpyridin-3-yl)ethyl]piperazin-1-yl]-2,3-dihydropyridazin-3-one]: the IC50 is 0.01 to 1000 nM.

Still in this assay, the particulars now being: Table 7, HEK-TREx hTRPC5; read-out: TRPC5-FLIPR IC50.
In the case of `C[C@@H]1Cc2c(nnn2[C@H](C)c2ccccc2C(F)(F)F)CN1c1cn[nH]c(=O)c1Cl` [MX, 4-chloro-5-[(6R)-6-methyl-1-[(1R)-1-[2-(trifluoromethyl)phenyl]ethyl]-1H,4H,5H,6H,7H-[1,2,3]triazolo[4,5-c]pyridin-5-yl]-2,3-dihydropyridazin-3-one], the IC50 lay in the range of 0.01 to 1000 nM.

In the case of `CN1CCN(C(=O)c2nn(Cc3ccccc3C(F)F)c3c2CN(c2cn[nH]c(=O)c2Cl)CC3)CC1` [OM], the IC50 lay in the range of 0.01 to 1000 nM.

Turning to `NC(=O)c1nn(Cc2ccccc2C(F)(F)F)c2c1CN(c1cn[nH]c(=O)c1Cl)CC2` [OP, 5-(5-Chloro-6-oxo-1,6-dihydropyridazin-4-yl)-1-[[2-(trifluoromethyl)phenyl]methyl]-1H,4H,5H,6H,7H-pyrazolo[4,3-c]pyridine-3-carboxamide], the IC50 is 0.01 to 1000 nM.

For the molecule `CN1CCN(Cc2nn(Cc3ccccc3C(F)F)c3c2CN(c2cn[nH]c(=O)c2Cl)CC3)CC1` [OU, 4-Chloro-5-(1-[[2-(difluoromethyl)phenyl]methyl]-3-[(4-methylpiperazin-1-yl)methyl]-1H,4H,5H,6H,7H-pyrazolo[4,3-c]pyridin-5-yl)-2,3-dihydropyridazin-3-one], the IC50 fell in the range of 0.01 to 1000 nM.

Consider `CN(C)C(=O)c1nc2c(n1Cc1ccccc1C(F)(F)F)CCN(c1cn[nH]c(=O)c1Cl)C2` [PW], for which the IC50 lay in the range of 0.01 to 1000 nM.

Turning to `CN(c1ncc2c(n1)CN(c1cn[nH]c(=O)c1Cl)C2)c1ccccc1C(F)(F)F` [QM], the IC50 is 0.01 to 1000 nM.

The test system of a further assay is human iPSC derived kidney organoids. As to the kind of experiment: Human iPSC derived kidney organoids with protamine sulfate injury. Particulars: pretreated 0.2, 2, 20 uM for 20 minutes, 300 ug/mL protamine sulfate 1 hour; vs protamine sulfate alone. Type of assay: cell-based. How it is done: Human iPSC derived kidney organoids differentiated for 22 days [Generation of kidney organoids from human pluripotent stem cells. Takasato M, Er P X, Chiu H S, Little M H. Nat Protoc. 2016 September; 11(9):1681-92. doi: 10.1038/nprot.2016.098. Epub 2016 Aug. 18.] were pretreated with 0.2, 2, 20 uM of AO or DMSO for 20 minutes then insulted with 300 ug/mL of protamine sulfate for 1 hour; 3 technical replicate organoids were treated for each condition. Organoids were washed twice with 1×DPBS−/−, fixed in 4% PFA for 25 minutes at room temperature, washed twice with 1×DPBS−/−, and transferred to 30% sucrose at 4° C. overnight, then snap frozen in Tissue-Tek O.C.T. compound. Organoids were cryosectioned at […] thickness and stained for phalloidin. Tiled images were acquired using a Zeiss LSM880 Airyscan super resolution confocal microscope using ZEN 2.3. Mean intensity values were quantified using Fiji/ImagJ1.52d.
In the case of `O=C1CN(c2cn[nH]c(=O)c2Cl)CCN1Cc1ccccc1C(F)(F)F` [AO], the “injury from protamine sulfate (mean phalloidin intensity per organoid)” value is given as “decreased injury”.
